From the SangsterLogP compilation

Assay: method code SF, from DOI: 10.1021/jm00063a015, PMID: 8388471

Going from `CN(Cc1ccccc1)C(=O)C(Cc1ccccc1)NC(=O)C(Cc1cn(C=O)c2ccccc12)NC(=O)CC1NC(=O)C2C3CCC(CC3)N2C1=O` (stereo unspecified) to `CN(Cc1ccccc1)C(=O)C(Cc1ccccc1)NC(=O)C(Cc1cn(C(=O)OCc2ccccc2)c2ccccc12)NC(=O)CC1NC(=O)C2C3CCC(CC3)N2C1=O` (stereo unspecified), the logP rises from 3.47 to 5.66.

Assay: not given

First: CN(Cc1ccccc1)C(=O)C(Cc1ccccc1)NC(=O)C(Cc1cn(C(=O)OCCCCCCN)c2ccccc12)NC(=O)CC1NC(=O)C2C3CCC(CC3)N2C1=O (stereo unspecified)
Second: CN(Cc1ccccc1)C(=O)C(Cc1ccccc1)NC(=O)C(Cc1cn(C(=O)CCCCCCN)c2ccccc12)NC(=O)CC1NC(=O)C2C3CCC(CC3)N2C1=O (stereo unspecified)
The logP of the first is higher: 2.95 for the first, 2.48 for the second.

Compared with `COC(=O)n1cc(CC(NC(=O)CC2NC(=O)C3C4CCC(CC4)N3C2=O)C(=O)NC(Cc2ccccc2)C(=O)N(C)Cc2ccccc2)c2ccccc21` (stereo unspecified), `CC(=O)n1cc(CC(NC(=O)CC2NC(=O)C3C4CCC(CC4)N3C2=O)C(=O)NC(Cc2ccccc2)C(=O)N(C)Cc2ccccc2)c2ccccc21` (stereo unspecified) is lower in logP: 4.05 for the first, 3.69 for the second.

First: CCCCCCCC(=O)n1cc(C[C@@H](NC(=O)CC2NC(=O)C3C4CCC(CC4)N3C2=O)C(=O)N[C@@H](Cc2ccccc2)C(=O)N(C)Cc2ccccc2)c2ccccc21 (stereo partly specified)
Second: CN(Cc1ccccc1)C(=O)C(Cc1ccccc1)NC(=O)C(Cc1cn(C(=O)CCC(=O)O)c2ccccc12)NC(=O)CC1NC(=O)C2C3CCC(CC3)N2C1=O (stereo unspecified)
The logP of the first is higher: 7.29 for the first, 3.15 for the second.

First: CN(Cc1ccccc1)C(=O)C(Cc1ccccc1)NC(=O)C(Cc1c[nH]c2ccccc12)NC(=O)CC1NC(=O)C2C3CCC(CC3)N2C1=O (stereo unspecified)
Second: CN(Cc1ccccc1)C(=O)C(Cc1ccccc1)NC(=O)C(Cc1cn(C)c2ccccc12)NC(=O)CC1NC(=O)C2C3CCC(CC3)N2C1=O (stereo unspecified)
The logP of the first is lower: 3.18 for the first, 3.85 for the second.

`CN(Cc1ccccc1)C(=O)[C@H](Cc1ccccc1)NC(=O)[C@@H](Cc1cn(C(=O)OC(C)(C)C)c2ccccc12)NC(=O)CC1NC(=O)C2C3CCC(CC3)N2C1=O` (stereo partly specified) gave a logP of 5.33.
